Results from patent publication US20260144258A1, “CRYSTAL OF 2-(5-CYCLOPROPYL-3-(ETHYLSULFONYL)PYRIDIN-2-YL)-5-((TRIFLUOROMETHYL)SULFONYL)BENZO[D]OXAZOLE” (SUMITOMO CHEMICAL COMPANY, LIMITED, priority 2022, published 2026).

Columns and labels:
Assay type in all cases: in vivo
[1] = test system: Argentine ant (Linepithema humile); assay: Test method 7: treated filter paper with sugar water, Argentine ant workers; details: 12.5 ppm, 0.7 ml on filter paper, after 6 days, 25° C.
Method: (§1) Next, an efficacy of the Type 1 crystal of Compound (1) on controlling harmful arthropods is shown by Test examples. The following tests were conducted at 25° C.
(§2) Test compound is made to a formulation according to a similar method to that described in the Formulation example 1, and thereto is added 1.8 g of sucrose, followed by adding 3% sugar water to prepare a dilution containing a prescribed concentration of the test compound.
(§3) A filter paper having a diameter of 5.5 cm is spread on the bottom of the cup, and then 0.7 ml of the dilutons are added dropwise to the filter paper, and ten (10) Argentine ant (Linepithema humile) workers are released into the cup, and the cup is covered with the lid. After 6 days, the number of the dead and distressed individuals of Argentine ant workers are counted, and the ratio of distressed and dead insects (%) is calculated by the following equation.
(§4) Here the dead individual is one whose behavior has completely stopped, and a distressed individual is one that cannot stand up when placed on its back and also cannot walk.

[2] = test system: German cockroach (Blattella germanica); assay: Test method 8: treated filter paper with sugar water, German cockroach male adults; details: 0.8 ppm, 0.7 ml on filter paper, after 5 days, 25° C.
Method: as §1, §2
as §3, with “dilutions” for “dilutons”, “five (5) German cockroach (Blattella germanica) male adults” for “ten (10) Argentine ant (Linepithema humile) workers”, “5” for “6”, “German cockroach male adults” for “Argentine ant workers”
as §4

[3] = test system: common cutworms (Spodoptera litura); assay: Test method 2: sprayed cabbage leaf, common cutworm larvae; details: 120 h, spray 20 mL/seedling on cabbage, second instar larvae, after 5 days, 25° C., read-out: mortality of insects
Method: as §1
(§5) Test compound is made to a formulation according to a similar method to that described in the Formulation example 1, and thereto is added water containing 0.03 v/v % of Shindain (registered trademark) to prepare a dilution containing a prescribed concentration of the test compound.
(§6) Cabbage (Brassicae oleracea) seedling (on the developmental stage of the second to third true leaf) is planted in a cup, and the dilutions are sprayed onto the seedling at a ratio of 20 mL/seedling. Thereafter, the stem and leaf thereof are cut out and then are placed into a cup that is lined with filter paper. Five (5) commom cutworms (Spodoptera litura) at the second instar larval stage are released into the cup. After 5 days, the number of the surviving insects is counted, and the mortality of insects is calculated by the following equation.
Mortality (%)=(1−Number of surviving insects/5)×100

[4] = test system: diamondback moths (Plutella xylostella); assay: Test method 3: sprayed cabbage leaf, diamondback moth larvae; details: 120 h, spray 20 mL/seedling on cabbage, second instar larvae, after 5 days, 25° C., read-out: mortality of insects
Method: as §1, §5
as §6, with “with a” for “with”, “diamondback moths (Plutella xylostella)” for “commom cutworms (Spodoptera litura)”

[5] = test system: brown planthoppers (Nilaparvata lugens); assay: Test method 5: sprayed rice seedling, brown planthopper larvae; details: 144 h, spray 10 mL/seedling on rice, third instar larvae, after 6 days, 25° C., read-out: mortality of insects
Method: as §1, §5
Rice (Oryza sativa) seedling (on the developmental stage of the second leaf) is planted in a cup, and the dilutions are sprayed onto the seedling at a ratio of 10 mL/seedling. Thereafter, twenty (20) brown planthoppers (Nilaparvata lugens) at the third instar larval stage are released into the cup. After 6 days, the number of the surviving insects is counted, and the mortality of insects is calculated by the following equation.
Mortality (%)=(1−Number of surviving insects/20)×100

[6] = test system: cotton aphids (Aphis gossypii); assay: Test method 1: foliar spray on cucumber seedling infested with cotton aphids; details: 500 ppm, spray 10 mL/seedling on cucumber, cotton aphids all stages, after 5 days, 25° C.
Method: Next, an efficacy of the Type 1 crystal of Compound (1) on controlling harmful arthropods is shown by Test examples. The following tests were conducted at 25° C. Test compound is made to a formulation according to a similar method to that described in the Formulation example 1, and thereto is added water containing 0.03 v/v % of Shindain (registered trademark) to prepare a dilution containing a prescribed concentration of the test compound. Cucumber (Cucumis sativus) seedling (on the developmental stage of the second true leaf) is planted in a cup, and approximately 30 cotton aphids (Aphis gossypii) (all stages of life) are released onto the seedling. After one day, the dilutions are sprayed onto the seedling at a ratio of 10 mL/seedling. After 5 days, the number of the surviving insects is examined, and the controlling value is calculated by the following equation. […]

[7] = test system: common house mosquitos (Culex pipiens pallens); assay: Test method 4: mosquito larvae released into dilution; details: 24 h, last instar larvae in dilution, after 1 day, 25° C., read-out: mortality of insects
Method: as §1
Test compound is made to a formulation according to a similar method to that described in the Formulation example 1, and thereto is added water to prepare a dilution containing a prescribed concentration of the test compound.
Into the dilution, 30 common house mosquitos (Culex pipiens pallens) at the last instar larval stage are released, and after 1 day, the state of the common house mosquito larvae is examined, and the mortality of insects is calculated by the following equation.
Mortality (%)=(Number of dead insects/Number of tested insects)×100

[8] = test system: cotton aphids (Aphis gossypii); assay: Test method 6: sprayed cucumber seedling with artificial rainfall, cotton aphids; details: 1 ppm, spray 10 mL/seedling on cucumber, artificial rainfall 10 mm/hr for 1 hour, female adults released after one day, after 5 days, 25° C.
Method: Next, an efficacy of the Type 1 crystal of Compound (1) on controlling harmful arthropods is shown by Test examples. The following tests were conducted at 25° C. Test compound is made to a formulation according to a similar method to that described in the Formulation example 1, and thereto is added water containing 0.02 v/v % of Shindain (registered trademark) to prepare a dilution containing a prescribed concentration of the test compound. Only the second true leaves of Cucumber (Cucumis sativus) seedling (on the developmental stage of the third true leaf) are retained, and the other leaves are cut off, and the dilutions are sprayed onto the seedling at a ratio of 10 mL/seedling. After the dilution, which is treated, is dried, rain is given to the cucumber seedling with an artificial rainfall device at 10 mm/hr for 1 hour. After one day, 10 cotton aphids (Aphis gossypii) female adults are released onto the seedling. After 5 days, the number of the surviving insects is examined and the controlling value is calculated by the following equation. […]

**Q.** Which “ratio of distressed and dead insects” value [1] does the source give for `CCS(=O)(=O)c1cc(C2CC2)cnc1-c1nc2cc(S(=O)(=O)C(F)(F)F)ccc2o1` [amorphous of Compound (1), 2-(5-cyclopropyl-3-(ethylsulfonyl)pyridin-2-yl)-5-((trifluoromethyl)sulfonyl)benzo[d]oxazole] here?
**A.** 35%

**Q.** And the “ratio of distressed and dead insects” value [2]?
**A.** 30%

**Q.** What does the source list for `CCS(=O)(=O)c1cc(C2CC2)cnc1-c1nc2cc(S(=O)(=O)C(F)(F)F)ccc2o1` [Type 1 crystal of Compound (1), 2-(5-cyclopropyl-3-(ethylsulfonyl)pyridin-2-yl)-5-((trifluoromethyl)sulfonyl)benzo[d]oxazole]?
**A.** mortality at 500 ppm [3]: ≥ 80%; mortality at 500 ppm [4]: ≥ 80%; mortality at 500 ppm [5]: ≥ 90%; controlling value [6]: ≥ 90%; mortality at 3.5 ppm [7]: ≥ 90%; ratio of distressed and dead insects [1]: 100%; controlling value [8]: 40.5%; ratio of distressed and dead insects [2]: 100%
